Patent publication US6797706B1, “Heterocyclecarboxamide derivative” (Yamanouchi Pharmaceutical Co., Ltd., priority 1999, dated 2004)

Tests used:
PCA reaction = assay: Mouse Passive Cutaneous Anaphylaxis (PCA) Test; type: in vivo; details: Male ICR (CD-1) mice; subcutaneously 30 minutes or orally 2 hours before antigen challenge
Description: 3. Mouse Passive Cutaneous Anaphylaxis (PCA) Test […] After 24 hours of the sensitization, 200 μl of 0.5% Evans blue solution containing 50 μg of DNP-conjugated bovine serum albumin was intravenously administered, and, after 30 minutes, each mouse was sacrificed through exsanguination to isolate both ears. […] The dye in the tissues was extracted with formaride and colorimetrically determined at 620 nm. A value obtained by subtracting the dye content of the left ear from the dye content of the right ear was used as the amount of dye leaked into the tissues by the PCA reaction. The PCA inhibition ratio by the test compound was calculated based on the following equation. In the formula, C: amount of the dye leaked into the tissue at the time of the administration of the vehicle alone, and x: amount of the dye leaked into the tissue at the time of the administration of the test compound. Inhibition ratio (%)={C-X}×100/C

release of serotonin = assay: Serotonin Release Test; type: cell-based; details: read-out: inhibitory activity as IC50 value against the release of serotonin
Description: 2. Serotonin Release Test
This was carried out in accordance with the method reported by Collado-Escobar et al. (Collado-Escobar, D et al. J. Immunol., 144: 3449-3457 (1990)).

Syk = target: T1, Syk (Homo sapiens, UniProt P43405); assay: Syk Tyrosine Kinase Inhibition Test (SPA system); type: biochemical
T1 construct: FLAG tag (8 amino acid residues) (C); made in house; host or cells: Sf-9 insect cells (baculovirus, pFASTBAC HT)
Text: 1. Syk Tyrosine Kinase Inhibition Test
1) Preparation of Syk Protein
Human Syk gene, in the form where a gene of FLAG tag consisting of 8 amino acid residues was linked to the 3′-end, was cloned using RT-PCR method from total RNA prepared from Jurkat cells. The amplified cDNA was incorporated into a vector, pFASTBAC HT, contained in Baculovirus Expression System (GIBCO BRL Inc.). The pFASTBAC HT is designed in such a manner that a His tag consisting of 6 histidine residues can be fused to the 5′-end of Syk. This plasmid DNA was introduced into competent cells, DH10BAC, contained in the Baculovirus Expression System to prepare DNA of recombinant virus. Thereafter, the recombinant virus (culture supernatant) was obtained by transfection of the DNA of recombinant virus into Sf-9 cells (ATCC). […]
SPA (Scintillation Proximity Assay) is a system developed by Amersham making use of a phenomenon in which scintillation occurs when a molecule having a radioactivity is in the proximity of (linked to) the surface of plastic beads containing a scintillant included therein. […]
The plate was sealed, stirred, allowed to stand at room temperature for 15 minutes and then centrifuged at 1,500 rpm for 3 minutes to precipitate the SPA beads. Radioactivity of each well was measured using TOP COUNT (PACKARD), and the tyrosine phosphorylation activity by Syk was calculated.

| Compound | IC50 (release of serotonin) | inhibitory activity against Syk at 1 μM (Syk) | suppression of PCA reaction (PCA reaction) |
| --- | --- | --- | --- |
| Cc1cccc(Nc2nc(N[C@@H]3CCCC[C@@H]3N)ccc2C(N)=O)c1.Cl (relative stereo) [Example 1] |  |  | excellently suppressed PCA reaction |
| Cc1cccc(Nc2nc(N[C@@H]3CCCC[C@@H]3N)cnc2C(N)=O)c1 (relative stereo) [Example 2, 5-(cis-2-aminohexylamino)-3-(3-methylanilino)pyrazine-2-carboxamide] |  |  | excellently suppressed PCA reaction |
| CN(C)C(=O)c1cnc(NCCN)nc1Nc1cccc(C(F)(F)F)c1 [2-(2-aminoethylamino)-N,N-dimethyl-4-(3-trifluoromethylanilino)pyrimidine-5-carboxamide] |  | did not exhibit any inhibitory activity |  |
| CNC(=O)c1cnc(NCCN)nc1Nc1cccc(C(F)(F)F)c1 [2-(2-aminoethylamino)-N-methyl-4-(3-trifluoromethylanilino)pyrimidine-5-carboxamide] |  | did not exhibit any inhibitory activity |  |

Now from value to compound, other results behind:

| IC50 (release of serotonin) | inhibitory activity against Syk at 1 μM (Syk) | Compound | suppression of PCA reaction (PCA reaction) |
| --- | --- | --- | --- |
| ≤ 100 nM |  | COc1cccc(Nc2nc(N[C@@H]3CCCC[C@@H]3N)cnc2C(N)=O)c1 (relative stereo) [Example 8, 5-(cis-2-aminocyclohexylamino)-3-(3-methoxyanilino)pyrazine-2-carboxamide] | excellently suppressed PCA reaction |
| ≤ 100 nM |  | COc1cc(Nc2nc(N[C@@H]3CCCC[C@@H]3N)cnc2C(N)=O)cc(OC)c1 (relative stereo) [Example 10, 5-(cis-2-aminocyclohexylamino)-3-(3,5-dimethoxyanilino)pyrazine-2-carboxamide] | excellently suppressed PCA reaction |
| ≤ 100 nM |  | CSc1ccc(Nc2nc(N[C@@H]3CCCC[C@@H]3N)cnc2C(N)=O)cc1 (relative stereo) [Example 11, 5-(cis-2-aminocyclohexylamino)-3-(4-methylsulfanylanilino)pyrazine-2-carboxamide] | excellently suppressed PCA reaction |
